Measured values taken from patent publication US9796768B2, “Peptide inhibitors of sodium channels” (The University of North Carolina at Chapel Hill, priority 2014, dated 2017).
“Also recorded” adds a separate entry of the source. Like-named read-outs stand apart in the source and are kept apart here. Non-standard residues stand in square brackets, D forms with d. Residues, ends and D or L forms follow the SMILES beside them. No end group written: not given here. Nle = CCCC[C@H](N)C(=O)O

How the values were obtained:
ENaC [1] = target: T1, ENaC (Homo sapiens, UniProt P51168); assay: Airway surface liquid (ASL) height in human bronchial epithelial cultures by XZ-confocal microscopy (ENaC-led fluid absorption); assay type: cell-based; conditions: for activity on inhibition of ENaC / preservation of ASL height, compared with S18: peptides added mucosally to HBECs at 30 μM, ASL height measured 3 h later (FIG. 2); for potency in ASL height dose response relative to S18: dose responses in airway cultures (FIGS. 3A-3B, 4); for efficacy in ASL height dose response relative to S18: dose responses in airway cultures (FIGS. 3A-3B)
T1 construct: endogenous in cells; host or cells: primary human bronchial epithelial cultures (HBECs) at air-liquid interface
T1 sequence (P37088 whole entry partner): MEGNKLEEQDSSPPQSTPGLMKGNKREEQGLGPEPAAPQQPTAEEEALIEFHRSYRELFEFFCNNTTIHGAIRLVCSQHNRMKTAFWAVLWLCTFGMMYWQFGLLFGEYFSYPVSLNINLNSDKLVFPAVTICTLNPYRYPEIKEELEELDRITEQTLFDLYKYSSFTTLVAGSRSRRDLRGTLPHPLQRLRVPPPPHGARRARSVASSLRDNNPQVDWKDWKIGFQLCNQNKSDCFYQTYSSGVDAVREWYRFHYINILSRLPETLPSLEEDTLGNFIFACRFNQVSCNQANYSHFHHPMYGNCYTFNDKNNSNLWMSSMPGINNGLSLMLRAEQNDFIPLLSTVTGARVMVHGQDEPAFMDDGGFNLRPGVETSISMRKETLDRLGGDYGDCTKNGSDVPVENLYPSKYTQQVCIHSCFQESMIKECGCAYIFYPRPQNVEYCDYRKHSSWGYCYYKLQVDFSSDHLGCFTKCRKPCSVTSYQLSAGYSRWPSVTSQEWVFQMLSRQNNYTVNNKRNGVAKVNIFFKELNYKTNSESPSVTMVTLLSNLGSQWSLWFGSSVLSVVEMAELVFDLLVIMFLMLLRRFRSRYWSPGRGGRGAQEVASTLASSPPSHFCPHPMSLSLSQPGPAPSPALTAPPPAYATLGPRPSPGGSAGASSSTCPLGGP
T1 sequence (P51168 whole entry): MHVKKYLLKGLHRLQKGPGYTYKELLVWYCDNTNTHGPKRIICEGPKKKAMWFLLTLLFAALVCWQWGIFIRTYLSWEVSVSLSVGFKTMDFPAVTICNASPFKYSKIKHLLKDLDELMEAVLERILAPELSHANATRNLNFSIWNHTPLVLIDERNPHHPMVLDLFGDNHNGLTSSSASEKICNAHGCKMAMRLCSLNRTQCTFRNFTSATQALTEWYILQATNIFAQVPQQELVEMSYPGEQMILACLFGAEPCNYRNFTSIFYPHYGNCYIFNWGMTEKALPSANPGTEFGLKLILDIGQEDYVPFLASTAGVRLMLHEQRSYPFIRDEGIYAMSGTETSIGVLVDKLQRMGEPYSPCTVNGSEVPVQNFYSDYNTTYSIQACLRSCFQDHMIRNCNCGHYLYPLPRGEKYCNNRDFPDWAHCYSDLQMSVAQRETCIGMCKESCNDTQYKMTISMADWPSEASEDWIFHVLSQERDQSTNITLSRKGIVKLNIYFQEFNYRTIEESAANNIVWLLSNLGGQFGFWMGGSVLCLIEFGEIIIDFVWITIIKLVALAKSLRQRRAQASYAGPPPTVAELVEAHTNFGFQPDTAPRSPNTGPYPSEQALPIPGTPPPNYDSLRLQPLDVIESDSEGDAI
T1 sequence (P51170 whole entry partner): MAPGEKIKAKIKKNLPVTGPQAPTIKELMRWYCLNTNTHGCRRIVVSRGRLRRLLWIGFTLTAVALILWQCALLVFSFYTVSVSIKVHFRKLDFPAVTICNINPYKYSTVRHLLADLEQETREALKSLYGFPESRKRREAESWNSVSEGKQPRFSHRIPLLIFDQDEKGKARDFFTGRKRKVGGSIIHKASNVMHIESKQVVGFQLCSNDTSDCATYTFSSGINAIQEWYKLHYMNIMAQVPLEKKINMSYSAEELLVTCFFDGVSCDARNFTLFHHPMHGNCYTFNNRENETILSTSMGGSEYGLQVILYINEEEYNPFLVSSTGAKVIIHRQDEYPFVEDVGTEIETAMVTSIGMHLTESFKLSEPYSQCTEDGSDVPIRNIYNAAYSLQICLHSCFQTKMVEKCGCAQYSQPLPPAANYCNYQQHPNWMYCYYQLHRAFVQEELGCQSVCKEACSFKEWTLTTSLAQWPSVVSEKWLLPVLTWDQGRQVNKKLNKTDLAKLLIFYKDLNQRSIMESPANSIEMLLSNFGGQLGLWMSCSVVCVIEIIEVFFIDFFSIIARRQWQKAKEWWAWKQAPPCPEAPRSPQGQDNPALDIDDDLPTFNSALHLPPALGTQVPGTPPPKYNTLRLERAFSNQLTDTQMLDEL
From the text: Cells were harvested by enzymatic digestion from human bronchial tissue as previously described under a protocol approved by the UNC School of Medicine IRB (Tarran et al., J. Gen. Physiol. 127:591 (2006)). Human excess donor lungs and excised recipient lungs were obtained at the time of lung transplantation from portions of main stem or […] bronchi and cells were harvested by enzymatic digestion. All preparations were maintained at an air-liquid interface in a modified bronchial epithelial medium and used 2-5 weeks after seeding on 12 mm T-Clear inserts (Corning Costar) coated with human placental type VI collagen (Sigma). Phosphate buffered saline (PBS) was used for washing human bronchial epithelial culture mucosal surfaces.
To label airway surface liquid, Ringer containing Texas Red-dextran (2 mg/ml; Invitrogen) was added to human bronchial epithelial culture mucosal surfaces. Perfluorocarbon was added mucosally to prevent evaporation of the airway surface liquid and the culture placed in a chamber containing 100 μl Ringer on the stage of a Leica SP8 confocal microscope with a 63× glycerol immersion objective. 10 points per culture were scanned and an average airway surface liquid height determined. For confocal microscopy human bronchial epithelial cultures were bathed serosally in a modified Ringer solution containing (mM): 116 NaCl, 10 NaHCO3, 5.1 KCl, 1.2 CaCl2, 1.2 MgCl2, 20 TES, 10 glucose, pH 7.4). At all other times, human bronchial epithelial cultures were maintained in a modified BEGM growth medium which contained 24 mM NaHCO3 gassed with 5% CO2. Perfluorocarbon (FC-77) was obtained from 3M and had no effect on ASL height as previously reported.
D-alanines are noted as lowercase a. All n=6-9. Data are shown as mean±SEM.

βENaC-Tg mice = assay type: in vivo
From the text: Like CF patients, βENaC-Tg mice are disease free at birth, but soon develop obstructive lung disease (Zhou, Z., et al. Am J Respir Crit Care Med 178, 1245-1256 (2008)). C57BL:FVB and C57BL:C3H mixed strains have 90% and 50% mortality, respectively, and the reproducibility of the disease on these backgrounds is sufficiently high that reliable data are produced with n of about 8-10 animals/group. Furthermore, the βENaC-Tg mouse responds to therapeutic interventions in a fashion similar to CF/COPD in humans, and the development of lung disease can be prevented following inhibition of lung disease at birth (Livraghi, A., et al. J Immunol 182, 4357-4367 (2009)). S18-derived peptides or vehicle were dosed one to three times a day by intranasal instillation (1 μl/g body weight) for 14 days in parallel cohorts of mice. Mice were weighed daily and, if a diuretic effect was found, the volume excreted was replaced by sub-cutaneous injections of sterile saline. At the end of the treatment, mice were sacrificed for phenotypic analysis.

ENaC [2] = target: T1, ENaC; conditions: previously demonstrated (Hobbs et al., 2013); cited from earlier work
Heat stability = assay type: physicochemical
[3] = βENaC-Tg C57BL:C3H mice, fourteen-day treatment (FIGS. 7C, 7D, 7F)

**Q.** Which “activity on inhibition of ENaC / preservation of ASL height, compared with S18” value (ENaC [1]) does the source give for “DQTLPLNVNP (also: C-terminal amide, amidation at residue 8) [SEQ ID NO:114]” here?
**A.** inactive

**Q.** Which “potency in ASL height dose response relative to S18” value (ENaC [1]) does the source give for “aaLPVPLDQSaa ([dA][dA]LPVPLDQS[dA][dA]-NH2; N-terminus assumed; SMILES CC(C)C[C@H](NC(=O)[C@@H]1CCCN1C(=O)[C@@H](NC(=O)[C@@H]1CCCN1C(=O)[C@H](CC(C)C)NC(=O)[C@@H](C)NC(=O)[C@@H](C)N)C(C)C)C(=O)N[C@@H](CC(=O)O)C(=O)N[C@@H](CCC(N)=O)C(=O)N[C@@H](CO)C(=O)N[C@H](C)C(=O)N[C@H](C)C(N)=O) [SEQ ID NO:9, a = D-alanine]” here?
**A.** diminished potency

**Q.** Which “efficacy in ASL height dose response relative to S18” value (ENaC [1]) does the source give for “aaLPVPLDQTLPLNVNPaa ([dA][dA]LPVPLDQTLPLNVNP[dA][dA]-NH2; N-terminus assumed; SMILES CC(C)C[C@H](NC(=O)[C@@H]1CCCN1C(=O)[C@H](CC(C)C)NC(=O)[C@@H](NC(=O)[C@H](CCC(N)=O)NC(=O)[C@H](CC(=O)O)NC(=O)[C@H](CC(C)C)NC(=O)[C@@H]1CCCN1C(=O)[C@@H](NC(=O)[C@@H]1CCCN1C(=O)[C@H](CC(C)C)NC(=O)[C@@H](C)NC(=O)[C@@H](C)N)C(C)C)[C@@H](C)O)C(=O)N[C@@H](CC(N)=O)C(=O)N[C@H](C(=O)N[C@@H](CC(N)=O)C(=O)N1CCC[C@H]1C(=O)N[C@H](C)C(=O)N[C@H](C)C(N)=O)C(C)C) [SEQ ID NO:2, a = D-alanine]” here?
**A.** equal potency and efficacy

**Q.** And the “potency in ASL height dose response relative to S18” value (ENaC [1])?
**A.** equal potency

**Q.** For `CC[C@H](C)[C@H](NC(=O)[C@@H]1CCCN1C(=O)[C@H](CC(C)C)NC(=O)[C@@H](C)NC(=O)[C@@H](C)N)C(=O)N1CCC[C@H]1C(=O)N[C@@H](CC(C)C)C(=O)N[C@@H](CC(=O)O)C(=O)N[C@@H](CCC(N)=O)C(=O)N[C@H](C(=O)N[C@H](C)C(=O)N[C@H](C)C(N)=O)[C@@H](C)O` [SEQ ID NO:128, aaLPIPLDQTaa] (H-[dA][dA]LPIPLDQT[dA][dA]-NH2), which percent survival (βENaC-Tg mice; [3]) is on record?
**A.** increased percent survival

**Q.** And the percent survival (βENaC-Tg mice; βENaC-Tg C57BL:C3H mice, once daily dosing (FIG. 7E left panel))?
**A.** increased percent survival

**Q.** What about the percent survival (βENaC-Tg mice; βENaC-Tg C57BL:FVB mice, fourteen-day treatment, inhaled (FIG. 7B)) of the same compound?
**A.** more effective than inhaled SEQ ID NO:142

**Q.** What does the source list for H-GGLPVPLDQTLPLNVNPA-NH2 [S18]?
**A.** EC50 of ENaC inhibition (ENaC [2]): sub micromolar range; duration of ENaC inhibition following a single dose (ENaC [2]): up to 24 h; heat stability (Heat stability): heat-stable

**Q.** With “SEQ ID NO:127: NH3-L-P-I-P-L-D-Q-T-NH2 (H-LPIPLDQT-NH2)” as the compound, how does the percent survival (βENaC-Tg mice; [3]) read?
**A.** increased percent survival

**Q.** With “aaLPVPLDQTaa ([dA][dA]LPVPLDQT[dA][dA]-NH2; N-terminus assumed; SMILES CC(C)C[C@H](NC(=O)[C@@H]1CCCN1C(=O)[C@@H](NC(=O)[C@@H]1CCCN1C(=O)[C@H](CC(C)C)NC(=O)[C@@H](C)NC(=O)[C@@H](C)N)C(C)C)C(=O)N[C@@H](CC(=O)O)C(=O)N[C@@H](CCC(N)=O)C(=O)N[C@H](C(=O)N[C@H](C)C(=O)N[C@H](C)C(N)=O)[C@@H](C)O) [SEQ ID NO:3, a = D-alanine]” as the compound, how does the “efficacy in ASL height dose response relative to S18” value (ENaC [1]) read?
**A.** did not affect its potency or efficacy; also recorded: equal potency and efficacy

**Q.** And the “potency in ASL height dose response relative to S18” value (ENaC [1])?
**A.** identical dose responses; also recorded: equal potency

**Q.** Which IC50 (ENaC [1]; additional dose response, fresh batch of airway cells (FIG. 4)) does the source give for `CCCC[C@H](NC(=O)[C@@H]1CCCN1C(=O)[C@H](CC(C)C)NC(=O)[C@@H](C)NC(=O)[C@@H](C)N)C(=O)N1CCC[C@H]1C(=O)N[C@@H](CC(C)C)C(=O)N[C@@H](CC(=O)O)C(=O)N[C@@H](CCC(N)=O)C(=O)N[C@H](C(=O)N[C@H](C)C(=O)N[C@H](C)C(N)=O)[C@@H](C)O` [SEQ ID NO:5, aaLPNlePLDQTaa] (H-[dA][dA]LP[Nle]PLDQT[dA][dA]-NH2; N-terminus assumed) here?
**A.** 30 nM

**Q.** What about the “potency in ASL height dose response relative to S18” value (ENaC [1]) of the same compound?
**A.** log-fold increase in potency; also recorded: significant increase in potency; also recorded: increased potency

**Q.** For “H-LPVPLDQT-NH2 [SEQ ID NO:113, LPVPLDQT]”, which “activity on inhibition of ENaC / preservation of ASL height, compared with S18” value (ENaC [1]) is on record?
**A.** retained similar activity to 518; also recorded: required for inhibition of ENaC and preservation of ASL height

**Q.** For aaLPVPNleDQTaa [SEQ ID NO:6], which “efficacy in ASL height dose response relative to S18” value (ENaC [1]) is on record?
**A.** diminished
